# Data reported in PubChem BioAssay (NCI).
#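 Interpolation was linear, between the two tested concentrations surrounding the appropriate level; five concentrations were tested over 48 hours in 96-well plates. GI50: concentration for 50% inhibition of growth. At the TGI there is no net growth.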
# Key:
# Assay in all cases: growth of human tumour cells (NCI), 48 h
# RXF 393 renal = system: RXF 393 renal
# MCF7 breast = system: MCF7 breast
# ACHN renal = system: ACHN renal
# OVCAR-5 ovarian = system: OVCAR-5 ovarian
# PC-3 prostate = system: PC-3 prostate
# HT29 colon = system: HT29 colon
# NCI-H460 lung = system: NCI-H460 lung
# EKVX NSCLC = system: EKVX NSCLC
# LOX IMVI melanoma = system: LOX IMVI melanoma
# SK-MEL-28 melanoma = system: SK-MEL-28 melanoma
Compound,TGI (RXF 393 renal) [µM],TGI (MCF7 breast) [µM],TGI (ACHN renal) [µM],TGI (OVCAR-5 ovarian) [µM],TGI (PC-3 prostate) [µM],TGI (HT29 colon) [µM],TGI (NCI-H460 lung) [µM],TGI (EKVX NSCLC) [µM],TGI (LOX IMVI melanoma) [µM],TGI (SK-MEL-28 melanoma) [µM],GI50 (ACHN renal) [µM],GI50 (OVCAR-5 ovarian) [µM],GI50 (SK-MEL-28 melanoma) [µM],GI50 (HT29 colon) [µM],GI50 (EKVX NSCLC) [µM]
Clc1ccc(CCn2ccc3ccccc32)c(Cl)c1,> 100,> 100,> 100,> 100,> 100,> 100,> 100,> 100,,,,,,,
OB1OCc2ccccc21,,82.1,,,64.4,> 100,> 100,,> 100,63,,,,,
COCN1C(=O)[C@@H]2C[C@@H](OC/C=C/CBr)CN2C(=O)c2ccccc21,51.3,33.7,54.8,49.7,51.8,82.1,,50.4,13.1,45.4,,,,,
O=C1NC(N2CCCC(CO)C2)=N/C1=C\c1ccc(O)cc1 (stereo not given),> 100,> 100,> 100,> 100,> 100,> 100,,> 100,> 100,> 100,,,,,
COc1ccccc1C1C(Cl)C(=O)N1NC(=O)Cc1ccccc1 (stereo not given),> 100,,> 100,> 100,,> 100,> 100,> 100,> 100,> 100,,,,,
CCOC(=O)C1C(=O)C=C(c2cc(C)ccc2O)CC1c1cccc(Br)c1 (stereo not given),33.4,87.1,42.2,68.9,40.4,37.5,50.6,67.6,32.1,,,,,,
COc1nc(NC2OCC(OC(C)=O)C(OC(C)=O)C2OC(C)=O)c(N=C(C)C(C)=O)c(=O)n1C (stereo not given),> 100,,> 100,> 100,,> 100,> 100,> 100,> 100,> 100,,,,,
CN1C(=N\S(=O)(=O)c2ccc(Cl)cc2)/C(=N/N=P(c2ccccc2)(c2ccccc2)c2ccccc2)c2ccccc21,> 100,,> 100,> 100,,> 100,> 100,> 100,,> 100,,,,,
CC(C)(Oc1ccc(C2C[C@H]2Cl)cc1)C(=O)O (stereo not given in full),> 100,> 100,,> 100,> 100,,> 100,> 100,> 100,> 100,,,,,
Cc1ccc(-n2cc(-c3ccc(Cl)cc3)c3c(NNC(=S)NCc4ccccc4)ncnc32)cc1,56.4,,> 100,48.6,23.1,50.7,12.4,73.5,22.8,> 100,,,,,
C[N+](C)(C)CC(=O)N/N=C(\C(=O)Nc1ccc(Cl)cc1)C1C(=O)N(c2ccccc2)N=C1N (stereo not given),> 100,,> 100,> 100,,> 100,> 100,> 100,> 100,> 100,,,,,
COc1ccc(/C=N/NC(=O)c2ccccc2Nc2ccccc2C(=O)N/N=C/c2ccc(OC)c(OC)c2)cc1OC,> 100,> 100,> 100,> 100,> 100,> 100,> 100,> 100,,> 100,,,,,
O=C(Cl)c1cc([N+](=O)[O-])cc([N+](=O)[O-])c1,,,> 100,> 100,,> 100,> 100,> 100,> 100,> 100,,,,,
Clc1ccc(CCN2CCN(CCCc3ccccc3)CC2)cc1Cl,,33.8,39.4,29.9,31.6,26.9,33.5,32.9,31.5,37.5,,,,,
O=C(CCc1nnc2s/c(=C\c3ccc(Cl)cc3Cl)c(=O)n12)Nc1cc(Cl)c(Cl)cc1Cl,,,> 100,> 100,,> 100,,> 100,,> 100,> 100,> 100,> 100,> 100,> 100
Nc1nc(NC(=O)C2=NS(=O)(=O)c3cc(S(N)(=O)=O)c(Cl)cc3N2)n[nH]1,> 100,,> 100,> 100,,> 100,> 100,> 100,> 100,> 100,,,,,
C[Si](C)(C)C1=C2C(=O)c3ccccc3C(=O)C2=C([Si](C)(C)C)[C@@H]2CCCC[C@H]12,> 100,> 100,> 100,> 100,> 100,,> 100,> 100,> 100,> 100,,,,,
O=C(C(Cl)=C(Nc1ccccc1)Nc1ccccc1)C(Cl)Cl,56.1,62.5,> 100,,> 100,48.1,> 100,70.2,30.3,> 100,,,,,
N#C/C(=C/NC(=S)Nc1ccc(S(N)(=O)=O)cc1)C(N)=O,> 100,> 100,> 100,> 100,> 100,> 100,> 100,> 100,,> 100,,,,,
CC(C)(C)OC(=O)N1CC(COS(C)(=O)=O)c2ccc(O)cc21 (stereo not given),0.924,7.49,3.12,5.86,3.83,10.6,5.45,4.59,,3.8,,,,,
Cc1c2cccc-2c(N(C)C)cc2c1[nH]c1ccccc12,,24.1,12.4,9.35,5.33,18.2,32.2,5.05,15.3,6.84,,,,,
CC1=C2CC3=C(C)C(=O)O[C@H]3C[C@@H](C)[C@@H]2CC1,,,> 100,> 100,> 100,> 100,> 100,> 100,> 100,> 100,,,,,
COc1cc(C=Nc2ccc(Oc3ccc(Cl)cc3)c(Cl)c2)cc(OC)c1OC,,95.5,83.8,> 100,36.2,44,39.9,48.1,32.2,53.8,,,,,
CC(C)(C)C(=O)Cc1cc2c(cc1C(=O)O)S(=O)(=O)NC(C(C)(C)C)=C2,,,> 100,> 100,,> 100,> 100,> 100,,> 100,,,,,
